# Experimental data from US20180221329A1, “CIS- AND TRANS-SUFFRUTICOSOL D AS THERAPEUTIC AGENTS” (MIDDLE TENNESSEE STATE UNIVERSITY, priority 2015, published 2018).
# Legend:
# [1] = test system: BT20 (estrogen receptor-negative human breast adenocarcinoma) cells; assay: Cell proliferation assay (AlamarBlue), BT20; format: cell-based; conditions: for Selectivity: BT20 versus normal HMEC cells; for IC50: BT20, 48 h, AlamarBlue
# Method: Cell culture. Four human cancer cell lines including A549 (lung carcinoma), BT20 (estrogen receptor-negative human breast adenocarcinoma), MCF-7 (estrogen receptor-positive human breast adenocarcinoma) and U2OS (human osteosarcoma) were purchased from American Type Culture Collection (ATCC). An A549 cell line that stably expresses Green Fluorescent Protein (GFP) was purchased from Cell BioLabs Inc. (San Diego, Calif., USA). A549, A549-GFP and BT20 cells were cultured in RPMI 1640 media (Sigma-Aldrich, St. Louis, Mo., USA), MCF7 cells were cultured in DMEM medium (ATCC, Manassas, Va., USA), and U20S cells were cultured in McCoy's 5A medium (ATCC, Manassas, Va., USA). As a control, HMEC cells (primary human mammary breast epithelial cells) were purchased from ATCC and cultured in McCoy's 5A medium. All medium contained 10% FBS (Sigma-Aldrich, St. Louis, Mo., USA) and 1% streptomycin and penicillin (Sigma-Aldrich, St. Louis, Mo., USA). These cells were incubated in a humid environment with 5% CO2 at 37° C.
# Cell proliferation assay. The resazurin reduction reagent AlamarBlue (Invitrogen, Frederick, Md., USA) was used to evaluate the cytotoxicity of the compounds. Cells were plated at a density of 5×10^3 cells per well in 96-well microplates with 100 μl culture medium, and were allowed to attach for 16 h prior to treatment. Next, all the medium was replaced with medium containing the cis- or trans-suffruticosol D compounds at seven different concentrations: 320, 100, 32, 10, 3.2, 1.0, and 0.32 μM. The cells were placed in an incubator for 48 h at 37° C. Cells that were treated with medium-containing vehicle (1% DMSO) only serve as negative control. Subsequently, AlamarBlue solution was added to the medium and the cells were incubated in the CO2 incubator for 1 h. The fluorescent intensity change of the dye was measured at Ex 555 nm and Em 590 nm using a plate reader (Molecular Devices, Sunnyvale, Calif., USA). The cytotoxicity was examined by determining by IC50, the dose that inhibited 50% of cell growth, using GraphPad Prism software (GraphPad Software, La Jolla, Calif., USA).
# Table 1. IC50 values of cis- and trans-suffruticosol D in selected cancer and normal cell lines. Cells were treated with various concentrations of cis- or trans-suffruticosol D for 48 h, and the viability of cells was evaluated with AlamarBlue dye.
# A549 cells [2] = assay: Multi-parameter cytotoxicity assay (HCS); format: cell-based, human; conditions: 24 h; for mitochondrial membrane potential: all tested concentrations
# Method: FIGS. 5A-D depict multi-parameter analysis of cytotoxicity induced by cis- and trans-suffruticosol D in A549 cells. A549 cells were treated with various concentrations of cis- or trans-suffruticosol D for 24 h, then stained with three dyes simultaneously (Hoechst, cell permeability dye, and mitochondrial membrane potential dye). Cells treated with vehicle only served as a negative control and cells treated with 10 μM valinomycin served as a positive control.
# Multi-parameter cytotoxicity assay. HCS analysis was used to measure nuclear morphology, cell membrane permeability, and mitochondrial membrane potential changes, the three parameters associated with cytotoxicity. A549 cells were treated with different concentrations of cis- or trans-suffruticosol D for 24 h. The cells were then fixed and stained with a warm solution containing Hoechst dye, Membrane Permeability Dye, and Mitochondrial membrane Potential Dye (Thermo Scientific, Waltham, Mass., USA). Cells were imaged using an Arrayscan VTI HCS reader (Thermo Scientific, Waltham, Mass., USA). Data on nuclear size, cell permeability, and mitochondria membrane potential were collected and analyzed using vHCS Scan software.
# [3] = test system: apoptotic proteins in A549 cells; assay: Apoptosis antibody array; format: cell-based, human; conditions: 50 μM, 6 h
# A549-GFP cells = assay: Cell motility assay (fluorescent bead track area); format: cell-based, human; conditions: 18 h, medium with 10% FBS
# Method: FIGS. 4A and 4B depict cell motility changes induced by cis- and trans-suffruticosol D in A549 cells. A549-GFP cells were seeded in 96-well plate with a monolayer of fluorescent beads. After treatment with cis- or trans-suffruticosol D for 18 h, individual cell movement was evaluated by measuring the fluorescent track area. Cells treated with serum free medium served as a negative control and cells treated with medium containing 10% serum served as a positive control.
# Cell motility assay. A 96-well collagen plate (Corning, N.Y., USA) was coated with blue fluorescent beads (Life Technologies, Eugene, Oreg., USA) as follows. The beads were centrifuged for 1 min at 14,000 g and washed twice with PBS, then 75 μl beads were added to each well of the 96-well collagen plate and incubated for 1 h at 37° C. The cells were seeded on the lawn of fluorescent beads and the sizes of the tracks generated by migrating cells were measured. After the plate was washed 5 times with PBS, A549-GFP cells were seeded at 500 cells/well in the coated plate and incubated for 1 h at 37° C. Subsequently the cells were treated with different concentrations of cis- or trans-suffruticosol D in medium containing 10% FBS for 18 h. Cells treated with serum-free medium serve as the negative control and cells treated with medium containing 10% FBS serve as the positive control. Cell tracks were imaged using an Arrayscan VTI HCS reader (Thermo Scientific, Waltham, Mass., USA) and the data was analyzed by vHCS Scan software. The mean of the full track area per cell for the test compound and the controls was calculated.
# A549 cells [4] = assay: Oxidative stress assay (ROS, DHE, HCS reader); format: cell-based, human; conditions: 24 h
# Method: FIGS. 3A and 3B depict induction of oxidative stress by cis- and trans-suffruticosol D in A549 cells. A549 cells were treated with various concentrations of cis- or trans-suffruticosol D for 24 h, then stained with Hoechst and dihydroethidium (DHE) dye. Cells treated with Doxorubicin served as a positive control, and cells treated with vehicle only served as a negative control. The reactive oxygen species (ROS) levels were measured by the fluorescent intensity of DHE that was converted to ethidium bromide.
# Oxidative stress assay. The Hitkit oxidative stress kit (Thermo Scientific, Waltham, Mass., USA) was used to determine the generation of reactive oxygen species (ROS) according to the manufacturer's instructions. Briefly, A549 cells were treated with cis- or trans-suffruticosol D for 24 h, fixed with warm 37% formaldehyde and stained with Hoechst and dihydroethidium (DHE) dye for 30 min at 37° C. with 5% CO2. Doxorubicin (DOX) at 1 μM concentration was used as a positive control and cells treated with vehicle only were used as negative control. ROS generation in the nuclei was indicated by the production of the fluorescent ethidium, and assessed by measuring the nuclear fluorescent intensity using an ArrayScan VTI High-content screening (HCS) reader (Thermo Scientific, Waltham, Mass., USA). Images were acquired and data was analyzed by vHCS Scan software.
IC50 ([1]; listed as cis-SD) [µM],Compound,Selectivity ([1]; listed as trans-SD),"IC50 ([1]; Homo sapiens, BT-20, 48 h) [µM]",cell membrane permeability (A549 cells [2]; 100 μM),nuclear size (A549 cells [2]; 100 μM),mitochondrial membrane potential (A549 cells [2]),BH3 interacting-domain death agonist (BID) expression [3],cyclin-dependent kinase inhibitor 1B (p27Kip1) expression [3],death receptor 6 (DR6) expression [3],decrease of A549 cell motility (A549-GFP cells; 10 μM) [%],decrease of A549 cell motility (A549-GFP cells; 32 μM) [%],decrease of A549 cell motility (A549-GFP cells; 100 μM) [%],increase of ROS levels (A549 cells [4]; 10 μM) [%],increase of ROS levels (A549 cells [4]; 32 μM) [%],increase of ROS levels (A549 cells [4]; 100 μM) [%],Selectivity ([1]; listed as cis-SD),cell membrane permeability (A549 cells [2]; various concentrations),nuclear size (A549 cells [2]; various concentrations)
–,Oc1ccc(/C=C/c2c3c(cc4c2[C@@H](c2cc(O)cc(O)c2)[C@H](c2ccc(O)cc2)O4)O[C@H](c2ccc(O)cc2)[C@@H]3c2cc(O)cc(O)c2)cc1 [trans-suffruticosol D],14.8,9.9 ± 3.8,increased cell membrane permeability,nuclei shrinkage,significant decrease,up-regulated,up-regulated,up-regulated,40.7,40.7,54.9,32.8,34.6,87.2,–,–,–
13.4 ± 2.5,Oc1ccc(C=Cc2c3c(cc4c2[C@@H](c2cc(O)cc(O)c2)[C@H](c2ccc(O)cc2)O4)O[C@H](c2ccc(O)cc2)[C@@H]3c2cc(O)cc(O)c2)cc1 [cis-suffruticosol D],–,–,–,–,significant decrease,up-regulated,up-regulated,up-regulated,42.3,42.0,50.4,32.8,55.6,73.1,20,no significant change,no significant change
